Results reported in patent US20060020036A1, “Methods and compositions to promote bone homestasis” (priority 2004, published 2006).
“Also recorded” adds a separate entry of the source.

Target: T1, NR1H3 (Homo sapiens, UniProt Q13133)
T1 construct: amplification of the complete open reading frame from ATG start codon to the stop codon of drugable genes; expressed in transfected cells; host or cells: primary human mesenchymal progenitor cells (MPCs), transduced with Ad5-NR1H3 and Ad-hCAR
T1 sequence (Q13133 1-447): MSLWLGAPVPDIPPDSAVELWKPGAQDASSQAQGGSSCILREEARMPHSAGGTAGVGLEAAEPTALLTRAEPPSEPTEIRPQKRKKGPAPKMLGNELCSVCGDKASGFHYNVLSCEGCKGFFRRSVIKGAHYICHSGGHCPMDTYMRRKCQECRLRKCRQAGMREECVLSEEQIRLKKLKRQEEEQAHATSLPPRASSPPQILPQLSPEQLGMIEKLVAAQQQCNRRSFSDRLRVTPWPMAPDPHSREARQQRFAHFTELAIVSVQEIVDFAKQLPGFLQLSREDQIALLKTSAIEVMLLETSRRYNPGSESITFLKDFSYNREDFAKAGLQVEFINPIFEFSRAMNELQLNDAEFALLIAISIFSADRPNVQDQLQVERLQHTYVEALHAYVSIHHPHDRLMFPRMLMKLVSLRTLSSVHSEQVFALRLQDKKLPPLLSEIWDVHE
Assay: AP assay: MPCs infected with Ad-NR1H3 and treated with ligand
Type: cell-based
Settings: for up-regulation of endogenous alkaline phosphatase (AP) activity, dose-response: MPCs infected with Ad-NR1H3, ligand at different concentrations
Description: Mesenchymal progenitor cells (MPCs) differentiate into osteoblasts in the presence of appropriate factors (e.g. BMP2). An assay to screen for such factors is developed by monitoring the activity of alkaline phosphatase (AP) enzyme, an early marker in the osteoblast differentiation program. MPCs are seeded in 384 well plates and simultaneously co-infected one day later with adenoviruses encoding the human coxsackie and adenovirus receptor (hCAR; Ad-hCAR) and individual adenoviruses (Ad-cDNA) from the arrayed adenoviral knock-in collection containing cDNA sequences corresponding to genes from “drugable” classes like GPCR's, kinases, proteases, phosphodiesterases and nuclear hormone receptors (the FLeXSelect collection). The majority of these cDNAs are obtained by a PCR-based approach. Briefly, PCR primers are designed for amplification of the complete open reading frame from ATG start codon to the stop codon of drugable genes, based on sequence data present in the RefSeq database. Primers are mixed in an arrayed format at a PCR ready concentration in 96 well plates. As a template for the PCR reactions, placental, fetal liver, fetal brain and spinal cord cDNA libraries are used (from Invitrogen or Edge Biosystems). For the genes encoded by a single exon, PCR reactions are also performed on human genomic DNA. After the amplification reactions, the PCR products are purified with a 96-well PCR clean-up system (Wizard magnesil, Promega, Madison, Wis., USA), digested with the appropriate restriction enzymes (AscI, NotI or SalI restriction sites are included in the primers) and directly cloned into the adenoviral adapter plasmid pIspAdAdapt-10-Zeo (described in U.S. Pat. No. 6,340,595) using DNA ligation kit version 2 (TaKaRa, Berkeley, CA, USA). After a transformation and selection step, multiple clones per gene, one of which is sequence verified, are used for the preparation of plasmid DNA and subsequent generation of adenovirus according to the procedure described in WO99/64582.
Cellular AP activity is determined 6 days after the infection (or ligand addition—see below). The principle of the assays is depicted in FIG. 2. […] Six days after the start of infection or treatment with a ligand, endogenous alkaline phosphatase activity is measured following addition of 4-methylumbelliferyl […] (MUP) substrate.
The stocks of the Ad-control-viruses are generated in 96 well plates (control plate). […] Up-regulation of alkaline phosphatase is read at 6 days post infection (6 dpi): 15 μl 4-Methylumbelliferyl-phosphate (MUP, Sigma) is added to each well, the plates are incubated for 15 min at 37° C. and monitored for AP activity using a fluorescence plate reader (Fluostar, BMG). […]

O=S(=O)(c1ccccc1)N(CC(F)(F)F)c1ccc(C(O)(C(F)(F)F)C(F)(F)F)cc1 [T0901317, N-(2,2,2-trifluoroethyl)-N-[4-[2,2,2-trifluoro-1-hydroxy-1-(trifluoromethyl)ethyl]phenyl]-benzenesulfonamide]
induction of AP activity in different MPC isolates (MPCs from 4 different donors, Ad-NR1H3 MOI 2500 + T0901317, 6 days): induce AP activity to similar extents in all 4 MPC isolates tested; also recorded: induce AP activity independent of the MPC isolate
up-regulation of endogenous alkaline phosphatase (AP) activity, dose-response: dose-dependently increase the up-regulation of the endogenous alkaline phosphatase activity; also recorded: AP activity is up-regulated; also recorded: score well

CC(=O)Oc1ccc2c(c1)[C@@]1(C)CCC[C@](C)(C(=O)OC(=O)[C@@]3(C)CCC[C@]4(C)c5cc(OC(C)=O)ccc5CC[C@@H]34)[C@@H]1CC2 [APD, acetyl podocarpic dimer]
up-regulation of endogenous alkaline phosphatase (AP) activity, dose-response: dose-response relation is observed; also recorded: AP activity is up-regulated; also recorded: Dose-dependent up-regulation of AP activity

O=C(O)Cc1cccc(OCCCN(Cc2cccc(C(F)(F)F)c2Cl)CC(c2ccccc2)c2ccccc2)c1 [GW3965, 2-(3-(3-(N-(2-chloro-3-(trifluoromethyl)benzyl)-N-(2,2-diphenylethyl)amino)propoxy)phenyl)acetic acid]
up-regulation of endogenous alkaline phosphatase (AP) activity, dose-response: dose-response relation is observed; also recorded: AP activity is up-regulated; also recorded: Dose-dependent up-regulation of AP activity
